Test results from ChEMBL document CHEMBL1201862, “PubChem BioAssay data set” (2004).
Calls of active or inactive are those of the source.

Legend:
[1] = target: Sphingosine 1-phosphate receptor 2 (Homo sapiens, UniProt O95136); test: Dose Response Cell Based Assay for Antagonists of the S1P2 Receptor. [Related pubchem assays: 856, 736 ]; type: functional
[2] = target: T1, Acyl-homoserine lactone acylase PvdQ (Pseudomonas aeruginosa (strain LESB58), UniProt Q9I194); test: P. aeruginosa PvdQ acylase inhibitors, dose response, biochemical, fluorescence, plate reader and imaging, cherry-picks (AID 493231)
T1 sequence (Q9I194 whole entry): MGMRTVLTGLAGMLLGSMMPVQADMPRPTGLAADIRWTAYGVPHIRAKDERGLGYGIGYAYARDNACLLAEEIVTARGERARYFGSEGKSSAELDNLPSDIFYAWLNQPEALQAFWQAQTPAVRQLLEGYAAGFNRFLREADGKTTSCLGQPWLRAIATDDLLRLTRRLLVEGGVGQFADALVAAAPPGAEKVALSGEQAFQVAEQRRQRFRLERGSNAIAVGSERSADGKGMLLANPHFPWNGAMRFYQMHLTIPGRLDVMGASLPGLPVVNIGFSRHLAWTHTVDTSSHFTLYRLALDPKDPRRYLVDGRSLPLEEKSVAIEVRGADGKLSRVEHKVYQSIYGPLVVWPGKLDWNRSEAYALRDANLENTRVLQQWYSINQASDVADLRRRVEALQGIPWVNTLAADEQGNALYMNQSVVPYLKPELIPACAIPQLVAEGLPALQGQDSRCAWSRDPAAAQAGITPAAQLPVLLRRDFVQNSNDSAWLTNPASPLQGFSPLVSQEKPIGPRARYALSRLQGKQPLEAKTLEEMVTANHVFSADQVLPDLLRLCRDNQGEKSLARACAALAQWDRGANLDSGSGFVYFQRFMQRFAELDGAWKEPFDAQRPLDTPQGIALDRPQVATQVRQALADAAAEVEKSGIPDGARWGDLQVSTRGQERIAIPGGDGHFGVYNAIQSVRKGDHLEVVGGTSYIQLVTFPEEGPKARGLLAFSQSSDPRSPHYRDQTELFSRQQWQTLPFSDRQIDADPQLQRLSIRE

[3] = target: Mitogen-activated protein kinase 10 (Homo sapiens, UniProt P53779); test: Dose response biochemical screening assay for inhibitors of c-Jun N-Terminal Kinase 3 (JNK3). [Related pubchem assays: 746 ]
[4] = target: Peroxisome proliferator-activated receptor gamma/Nuclear receptor corepressor 2 (Homo sapiens, UniProt P37231+Q9Y618); test: Counterscreen for NR2E3 inverse agonists: TR-FRET-based biochemical high throughput dose response assay to identify inverse agonists of the interaction between peroxisome proliferator-activated receptor gamma (PPARg) and nuclear receptor co-repressor 2 (NCOR2).; type: functional
[5] = target: Photoreceptor-specific nuclear receptor (Homo sapiens, UniProt Q9Y5X4); test: NR2E3 inverse agonists, dose response, biochemical, TR-FRET (AID 463256); type: functional
[6] = target: Prothrombin (Homo sapiens, UniProt P00734); test: Thrombin 1536 HTS Dose Response Confirmation. [Related pubchem assays: 1046 (Thrombin 1536 HTS; hits were confirmed in this assay)]; type: functional
[7] = target: T2, Lytic switch protein BZLF1 (Epstein-Barr virus (strain B95-8) (HHV-4) (Human herpesvirus 4), UniProt P03206); test: EBV ZTA inhibitors, dose response, counter-screen for EBNA-1 inhibitor project, biochemical, fluorescence polarization, Epstein-Barr virus, 1536-well (AID 2377); parameters: species or system human gammaherpesvirus 4;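 also: fluorescence polarization of Cy5-labelled ZRE DNA probe bound by purified Zta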
T2 sequence (P03206 whole entry): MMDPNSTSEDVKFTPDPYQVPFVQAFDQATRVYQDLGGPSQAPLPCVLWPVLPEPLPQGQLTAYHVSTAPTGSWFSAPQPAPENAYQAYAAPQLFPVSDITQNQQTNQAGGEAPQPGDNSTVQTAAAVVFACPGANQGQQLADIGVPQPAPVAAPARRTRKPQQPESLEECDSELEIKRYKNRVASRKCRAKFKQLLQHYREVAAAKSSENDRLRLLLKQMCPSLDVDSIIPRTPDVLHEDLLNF

[8] = target: T3, Epstein-Barr nuclear antigen 1 (Epstein-Barr virus (strain B95-8) (HHV-4) (Human herpesvirus 4), UniProt P03211); test: EBNA-1 inhibitors, dose response, biochemical, fluorescence polarization, 1536-well (AID 2381); parameters: species or system human gammaherpesvirus 4;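 also: fluorescence polarization of a Cy5 DNA probe bound by EBNA-1 protein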
T3 sequence (P03211 whole entry): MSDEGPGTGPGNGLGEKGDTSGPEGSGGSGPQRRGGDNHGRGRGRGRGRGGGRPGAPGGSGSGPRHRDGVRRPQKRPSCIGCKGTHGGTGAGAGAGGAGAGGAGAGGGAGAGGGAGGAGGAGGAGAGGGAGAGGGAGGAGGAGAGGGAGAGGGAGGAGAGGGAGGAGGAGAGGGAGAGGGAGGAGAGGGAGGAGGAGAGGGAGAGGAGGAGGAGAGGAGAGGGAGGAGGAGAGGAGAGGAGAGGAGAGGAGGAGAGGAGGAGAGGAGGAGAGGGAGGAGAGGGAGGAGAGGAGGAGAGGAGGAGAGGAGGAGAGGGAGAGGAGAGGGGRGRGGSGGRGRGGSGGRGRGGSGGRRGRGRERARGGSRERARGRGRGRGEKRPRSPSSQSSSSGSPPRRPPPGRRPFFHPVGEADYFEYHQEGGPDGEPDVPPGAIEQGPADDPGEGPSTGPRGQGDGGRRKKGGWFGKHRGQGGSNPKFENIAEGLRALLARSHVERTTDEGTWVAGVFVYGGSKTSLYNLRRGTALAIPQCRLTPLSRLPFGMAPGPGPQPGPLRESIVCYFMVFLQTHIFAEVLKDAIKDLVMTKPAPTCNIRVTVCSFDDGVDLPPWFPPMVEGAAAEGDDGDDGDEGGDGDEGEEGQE

[9] = target: Phospholipase A2 (Homo sapiens, UniProt P04054); type: functional;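 also: confirmatory dose-response counterscreen on phospholipase A2, testing hits that came from an ultra-high-throughput screen for ATG4B inhibitors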
[10] = target: T4, Cysteine protease ATG4B (Homo sapiens, UniProt Q9Y4P1); type: functional;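 also: Fluorescence-based dose-response confirmation assay measuring inhibition of ATG4B activity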
T4 sequence (Q9Y4P1 whole entry): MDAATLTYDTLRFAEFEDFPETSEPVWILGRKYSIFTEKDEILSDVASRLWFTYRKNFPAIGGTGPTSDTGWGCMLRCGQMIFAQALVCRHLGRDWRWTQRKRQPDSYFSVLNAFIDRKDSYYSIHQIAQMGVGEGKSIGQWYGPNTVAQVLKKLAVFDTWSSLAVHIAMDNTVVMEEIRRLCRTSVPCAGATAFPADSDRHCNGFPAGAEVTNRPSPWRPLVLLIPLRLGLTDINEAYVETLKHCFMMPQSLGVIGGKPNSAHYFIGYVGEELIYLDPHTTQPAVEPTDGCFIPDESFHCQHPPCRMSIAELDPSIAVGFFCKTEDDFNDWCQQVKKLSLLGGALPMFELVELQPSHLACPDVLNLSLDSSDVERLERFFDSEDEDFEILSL

[11] = target: Eukaryotic translation initiation factor 4E (Mus musculus, UniProt P63073); test: eIF4E–eIF4G protein interaction inhibitors, dose response, biochemical, TR-FRET (AID 855); type: functional;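 also: potency for disrupting eIF4E binding to eIF4GI seen as loss of FRET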
[12] = target: 26S proteasome non-ATPase regulatory subunit 14 (Homo sapiens, UniProt O00487); test: inhibition of proteasome subunit RPN11 – biochemical, fluorescence polarization, uHTS hits, confirmation (AID 602368); type: functional
[13] = target: Prothrombin (Bos taurus, UniProt P00735); test: thrombin inhibition, dose response, biochemical, fluorescence polarization, uHTS hits (AID 602369); type: functional
[14] = target: 72 kDa type IV collagenase (Homo sapiens, UniProt P08253); test: Dose Response validation of uHTS RPN11 inhibitor hits using a MMP-2 Fluorescence assay.; type: functional
[15] = cytotoxicity toward NIH3T3 fibroblasts, dose response, counter-screen, cell-based, ATP luminescence, mouse fibroblasts (AID 2010); type: functional;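 also: cells exposed to compound for about 90 hours before reading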
[16] = cells
[17] = inhibitors of intracellular T. cruzi replication, confirmation, NIH3T3 host cells, beta-gal luminescence (AID 2044); type: functional, cell-based;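 also: intracellular parasites grown in NIH/3T3 mouse fibroblasts as host cells; luminescent beta-galactosidase reporter signal from transgenic T. cruzi replicating inside host cells; inhibitors lower the luminescence signal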
[18] = A cytotoxicity screen of small molecule inhibitors of the PhoP region in Salmonella typhi identified in the primary screen. [Related pubchem assays: 1850, 1864, 1985 ]; type: functional
[19] = enhancers of respiration in Yfh1-depleted yeast, dose response, Friedreich's ataxia, plus single-dose screen (AID 1465); type: functional;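 also: yeast depleted of Yfh1p frataxin homolog grown on glycerol needing respiration; WST-1 tetrazolium dye reduction as measure of cellular dehydrogenase metabolic activity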
[20] = target: G-protein coupled receptor 183 (Homo sapiens, UniProt P32249); test: SAR confirmation of small molecule antagonists of the EBI2 receptor via a luminescent beta-arrestin assa.; type: functional
[21] = tested on: BJ; test: cells; type: functional, cell-based; conditions: Homo sapiens
[22] = tested on: BJ; test: cytotoxicity toward BJ-TERT fibroblasts, dose response, cell-based, RAS-independent, luminescence (AID 1933); type: functional; conditions: Homo sapiens
[23] = tested on: BJ; test: cytotoxicity toward BJ-TERT-LT-ST fibroblasts, dose response, cell-based, RAS-independent, luminescence (AID 1935); type: functional; conditions: Homo sapiens;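 also: BJ fibroblasts immortalized with TERT plus LT and ST oncogenes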
[24] = target: G-protein coupled receptor 35 (Homo sapiens, UniProt Q9HC97); test: GPR35 antagonists blocking zaprinast-driven arrestin recruitment, primary screen, imaging, U2OS, beta-arrestin-GFP, zaprinast agonist (AID 2058); type: functional;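 also: antagonist potency meaning inhibition of agonist-induced arrestin redistribution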
[25] = target: T5, Endoribonuclease toxin MazF (Escherichia coli K-12, UniProt P0AE70); test: MazF toxin RNase activators, dose response, biochemical, fluorescence, single-stranded RNA substrate, uHTS hits (AID 588481); type: functional
T5 sequence (P0AE70 whole entry): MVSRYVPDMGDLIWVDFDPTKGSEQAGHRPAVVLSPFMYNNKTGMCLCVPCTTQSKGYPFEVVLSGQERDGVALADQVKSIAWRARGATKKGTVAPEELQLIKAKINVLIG

[26] = cytotoxicity toward DRD oncogenic fibroblasts, dose response, cell-based, non-viral oncogenic, luminescence (AID 1934); type: functional; conditions: Homo sapiens
[27] = target: T5, Endoribonuclease toxin MazF; test: fluorescent RNA oligo signal without MazF, dose response, counter-screen for MazEF activator project, biochemical, fluorescence, single-stranded RNase substrate (AID 588502); type: functional
[28] = MC4R antagonists, dose response, counter-screen for LGR2 antagonist project, cell-based, plate reader, cherry pick (AID 743444); type: functional;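 also: transfected HEK 293 cells stimulated with alpha-MSH peptide; potency of inhibitors of the alpha-MSH evoked signal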
[29] = LGR2 antagonists, dose response, cell-based, HEK293, CRE-luciferase reporter, cherry pick, set 2 (AID 743343); type: functional;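 also: transfected cells were stimulated with diluted bursicon conditioned medium after compound addition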
[30] = target: Luciferin 4-monooxygenase (Photinus pyralis, UniProt P08659); test: Counter Screen for Luciferase-based Assay Positives. [Related pubchem assays: 620, 618, 411 ]
[31] = HepG2 cell cytotoxicity, dose response, cytotoxicity control, plate reader, cherry-pick, antagonist series (AID 743416); type: functional, cell-based
[32] = tested on: HT-1080; test: cytotoxicity in HT1080 fibrosarcoma cells, cell-based, fluorescence readout (AID 620); type: functional; conditions: Homo sapiens

Chain of Peroxisome proliferator-activated receptor gamma/Nuclear receptor corepressor 2 (P37231 whole entry): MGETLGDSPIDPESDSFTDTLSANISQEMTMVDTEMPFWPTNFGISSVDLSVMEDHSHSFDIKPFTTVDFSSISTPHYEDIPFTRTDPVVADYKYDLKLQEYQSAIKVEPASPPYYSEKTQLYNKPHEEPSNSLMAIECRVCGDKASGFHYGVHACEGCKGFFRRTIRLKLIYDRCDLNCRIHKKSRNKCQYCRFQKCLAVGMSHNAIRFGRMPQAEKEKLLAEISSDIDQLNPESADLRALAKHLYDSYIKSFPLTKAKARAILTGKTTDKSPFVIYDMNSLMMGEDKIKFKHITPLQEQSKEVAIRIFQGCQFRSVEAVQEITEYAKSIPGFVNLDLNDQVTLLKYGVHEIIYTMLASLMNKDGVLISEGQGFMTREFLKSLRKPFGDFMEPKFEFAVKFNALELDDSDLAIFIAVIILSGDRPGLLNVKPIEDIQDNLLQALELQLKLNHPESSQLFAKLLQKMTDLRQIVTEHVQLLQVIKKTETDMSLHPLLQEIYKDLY
Chain of Peroxisome proliferator-activated receptor gamma/Nuclear receptor corepressor 2 (Q9Y618 whole entry): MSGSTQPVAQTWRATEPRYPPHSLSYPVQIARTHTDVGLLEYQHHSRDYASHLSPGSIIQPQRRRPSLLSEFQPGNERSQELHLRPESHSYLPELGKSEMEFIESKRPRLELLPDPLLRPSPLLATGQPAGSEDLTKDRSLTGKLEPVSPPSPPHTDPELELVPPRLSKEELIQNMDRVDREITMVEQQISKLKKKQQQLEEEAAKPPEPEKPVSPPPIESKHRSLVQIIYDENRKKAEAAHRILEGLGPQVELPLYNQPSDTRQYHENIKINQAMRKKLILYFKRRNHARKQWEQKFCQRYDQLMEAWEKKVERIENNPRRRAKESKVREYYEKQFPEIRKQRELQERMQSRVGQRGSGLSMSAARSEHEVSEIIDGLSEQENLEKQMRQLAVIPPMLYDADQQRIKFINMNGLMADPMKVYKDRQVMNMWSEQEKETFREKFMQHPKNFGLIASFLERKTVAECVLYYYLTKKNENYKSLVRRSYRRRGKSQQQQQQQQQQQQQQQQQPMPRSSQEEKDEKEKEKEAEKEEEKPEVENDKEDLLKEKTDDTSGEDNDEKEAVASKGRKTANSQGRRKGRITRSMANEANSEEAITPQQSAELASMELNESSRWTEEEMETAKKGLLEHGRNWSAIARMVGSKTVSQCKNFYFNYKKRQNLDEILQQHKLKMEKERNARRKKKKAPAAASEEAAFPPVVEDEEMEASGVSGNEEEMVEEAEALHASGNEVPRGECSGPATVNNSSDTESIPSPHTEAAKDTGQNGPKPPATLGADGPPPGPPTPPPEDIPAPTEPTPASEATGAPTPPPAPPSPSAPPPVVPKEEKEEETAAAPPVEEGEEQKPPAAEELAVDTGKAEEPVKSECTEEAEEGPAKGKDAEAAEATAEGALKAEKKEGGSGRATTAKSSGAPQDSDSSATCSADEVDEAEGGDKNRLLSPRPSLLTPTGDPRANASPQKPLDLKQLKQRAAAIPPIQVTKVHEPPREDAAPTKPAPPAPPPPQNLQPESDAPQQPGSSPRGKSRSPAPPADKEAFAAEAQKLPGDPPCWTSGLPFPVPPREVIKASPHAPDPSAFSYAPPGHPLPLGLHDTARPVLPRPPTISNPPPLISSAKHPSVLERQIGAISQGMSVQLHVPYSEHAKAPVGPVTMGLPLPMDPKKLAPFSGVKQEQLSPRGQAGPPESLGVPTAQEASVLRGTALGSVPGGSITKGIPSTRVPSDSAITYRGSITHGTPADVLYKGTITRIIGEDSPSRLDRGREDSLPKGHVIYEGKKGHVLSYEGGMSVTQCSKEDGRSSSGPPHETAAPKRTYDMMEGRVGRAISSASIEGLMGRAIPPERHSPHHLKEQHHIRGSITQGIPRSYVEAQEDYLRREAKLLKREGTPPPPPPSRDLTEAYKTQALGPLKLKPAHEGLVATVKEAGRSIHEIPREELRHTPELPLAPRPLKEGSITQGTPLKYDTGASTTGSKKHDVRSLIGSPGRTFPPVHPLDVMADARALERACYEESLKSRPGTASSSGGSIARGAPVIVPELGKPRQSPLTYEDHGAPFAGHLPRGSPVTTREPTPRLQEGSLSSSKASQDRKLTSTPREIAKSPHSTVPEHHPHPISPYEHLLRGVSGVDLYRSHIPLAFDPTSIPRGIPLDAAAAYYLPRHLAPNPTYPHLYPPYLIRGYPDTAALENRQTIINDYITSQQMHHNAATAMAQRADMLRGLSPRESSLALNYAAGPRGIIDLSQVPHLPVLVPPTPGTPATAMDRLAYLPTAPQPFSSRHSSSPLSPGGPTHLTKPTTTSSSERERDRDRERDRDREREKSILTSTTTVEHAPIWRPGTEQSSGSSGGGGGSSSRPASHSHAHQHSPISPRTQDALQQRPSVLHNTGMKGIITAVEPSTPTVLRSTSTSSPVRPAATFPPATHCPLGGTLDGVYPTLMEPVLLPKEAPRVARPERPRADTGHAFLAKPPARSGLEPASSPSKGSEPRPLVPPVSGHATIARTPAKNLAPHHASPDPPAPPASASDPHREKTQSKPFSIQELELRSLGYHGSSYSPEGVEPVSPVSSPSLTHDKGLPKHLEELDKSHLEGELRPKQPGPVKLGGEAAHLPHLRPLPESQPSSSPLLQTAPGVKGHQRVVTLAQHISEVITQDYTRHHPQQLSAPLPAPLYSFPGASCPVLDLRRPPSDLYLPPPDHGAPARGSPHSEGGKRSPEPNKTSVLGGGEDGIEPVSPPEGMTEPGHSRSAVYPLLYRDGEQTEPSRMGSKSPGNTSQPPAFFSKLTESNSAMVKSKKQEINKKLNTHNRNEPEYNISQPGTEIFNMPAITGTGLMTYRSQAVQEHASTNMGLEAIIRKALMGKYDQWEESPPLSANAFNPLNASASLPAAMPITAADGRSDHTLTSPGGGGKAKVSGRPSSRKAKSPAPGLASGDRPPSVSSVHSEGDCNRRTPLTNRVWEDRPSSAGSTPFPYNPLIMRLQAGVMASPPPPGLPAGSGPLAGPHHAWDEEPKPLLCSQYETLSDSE
Chain of Photoreceptor-specific nuclear receptor (Q9Y5X4 whole entry): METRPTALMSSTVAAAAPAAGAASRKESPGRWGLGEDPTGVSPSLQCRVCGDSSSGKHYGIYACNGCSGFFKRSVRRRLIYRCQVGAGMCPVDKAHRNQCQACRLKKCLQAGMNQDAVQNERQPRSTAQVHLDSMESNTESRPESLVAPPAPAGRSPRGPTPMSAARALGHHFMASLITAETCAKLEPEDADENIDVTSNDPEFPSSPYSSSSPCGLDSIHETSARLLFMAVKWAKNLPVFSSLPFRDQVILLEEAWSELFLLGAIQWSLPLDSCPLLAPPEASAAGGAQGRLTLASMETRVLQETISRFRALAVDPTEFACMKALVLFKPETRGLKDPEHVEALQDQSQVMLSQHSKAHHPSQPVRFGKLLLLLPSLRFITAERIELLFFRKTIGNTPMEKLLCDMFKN
Chain of Mitogen-activated protein kinase 10 (P53779 whole entry): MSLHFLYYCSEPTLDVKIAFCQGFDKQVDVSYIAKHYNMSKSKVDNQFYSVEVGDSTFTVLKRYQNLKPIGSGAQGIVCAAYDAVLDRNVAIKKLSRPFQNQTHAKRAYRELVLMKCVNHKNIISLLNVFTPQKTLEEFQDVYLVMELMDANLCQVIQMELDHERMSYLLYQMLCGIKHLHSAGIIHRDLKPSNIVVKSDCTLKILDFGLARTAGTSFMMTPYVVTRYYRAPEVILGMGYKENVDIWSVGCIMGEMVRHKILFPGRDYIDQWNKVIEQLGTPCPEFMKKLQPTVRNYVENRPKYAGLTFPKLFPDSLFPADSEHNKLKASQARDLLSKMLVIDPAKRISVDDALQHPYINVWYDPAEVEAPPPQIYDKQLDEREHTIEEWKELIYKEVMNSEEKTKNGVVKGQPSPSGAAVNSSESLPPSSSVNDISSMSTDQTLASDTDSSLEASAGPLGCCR
Chain of 26S proteasome non-ATPase regulatory subunit 14 (O00487 whole entry): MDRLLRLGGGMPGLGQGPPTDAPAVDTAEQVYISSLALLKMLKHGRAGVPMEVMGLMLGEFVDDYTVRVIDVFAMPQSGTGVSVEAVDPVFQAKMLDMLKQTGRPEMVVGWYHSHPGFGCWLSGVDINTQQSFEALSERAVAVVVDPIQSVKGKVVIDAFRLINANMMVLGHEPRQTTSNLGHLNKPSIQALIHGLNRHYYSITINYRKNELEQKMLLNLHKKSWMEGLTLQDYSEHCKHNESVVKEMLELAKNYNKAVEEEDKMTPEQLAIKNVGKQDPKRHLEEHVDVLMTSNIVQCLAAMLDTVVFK
Chain of 72 kDa type IV collagenase (P08253 whole entry): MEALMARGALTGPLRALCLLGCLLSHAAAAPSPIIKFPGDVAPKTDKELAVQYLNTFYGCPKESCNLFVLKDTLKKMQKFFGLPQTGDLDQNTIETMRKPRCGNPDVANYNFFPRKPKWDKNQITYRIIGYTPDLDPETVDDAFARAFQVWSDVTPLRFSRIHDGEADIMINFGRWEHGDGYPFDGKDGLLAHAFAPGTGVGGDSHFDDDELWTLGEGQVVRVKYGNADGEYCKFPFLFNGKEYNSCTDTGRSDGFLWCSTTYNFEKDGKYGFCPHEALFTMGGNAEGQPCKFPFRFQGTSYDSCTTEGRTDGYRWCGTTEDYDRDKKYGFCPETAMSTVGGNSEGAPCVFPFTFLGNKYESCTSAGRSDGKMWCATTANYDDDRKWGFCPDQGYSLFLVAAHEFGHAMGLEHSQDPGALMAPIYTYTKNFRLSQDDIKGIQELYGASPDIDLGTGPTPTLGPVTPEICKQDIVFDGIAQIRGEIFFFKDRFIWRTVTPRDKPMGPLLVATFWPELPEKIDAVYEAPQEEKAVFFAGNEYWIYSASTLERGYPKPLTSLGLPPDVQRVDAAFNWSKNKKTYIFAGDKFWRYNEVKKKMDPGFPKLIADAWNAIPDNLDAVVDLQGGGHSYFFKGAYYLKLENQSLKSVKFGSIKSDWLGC
Chain of Phospholipase A2 (P04054 whole entry): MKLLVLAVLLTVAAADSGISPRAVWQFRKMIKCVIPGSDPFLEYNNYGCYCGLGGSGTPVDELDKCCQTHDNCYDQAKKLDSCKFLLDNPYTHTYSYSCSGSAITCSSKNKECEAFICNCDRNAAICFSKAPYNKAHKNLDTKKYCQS

CN(C)/C=N\C(=O)c1sc2cc(C(F)(F)F)cnc2c1-c1cccs1
IC50 [1]: > 30 µM (not active)

COC(=O)c1cc(-c2cccc(OC)c2)on1
AC50 [2]: > 100 µM (inactive)

CCOC(=O)c1c(-c2ccccc2)[nH]c2ccc(O)cc12
IC50 [3]: 22.2 µM (not active)

COC(=O)c1sccc1NC(=O)c1ccc(OC)cc1
IC50 [3]: 26.8 µM (not active)

Cc1ccc2oc(-c3ccc(NC(=O)c4ccc5c(c4)OCO5)cc3)nc2c1
IC50 [4]: 2 µM (active) | IC50 [5]: 2.88 µM (active)

Nc1nc(-c2ccco2)nn1C(=O)c1ccccc1Cl
IC50 [6]: 14 µM (active)

N#Cc1c2ncn(CC(=O)c3ccc(Br)cc3)c(=O)c2c2n1CCC2
IC50 [7]: > 111 µM (not active) | IC50 [8]: 13.1 µM (not active)

O=c1cc(O)[nH]c2c1sc1nc(C(F)(F)F)c3c(c12)CCCCC3
IC50 [4]: > 39.8 µM (not active) | IC50 [9]: 9.53 µM (active) | IC50 [5]: > 39.8 µM (not active) | IC50 [10]: 11.1 µM (active)

C=CCn1c(SCC(=O)Nc2ccc(-c3nc4ccc(C)cc4s3)cc2)nnc1-c1ccccc1
IC50 [4]: 0.737 µM (active) | IC50 [11]: > 64 µM (inactive) | IC50 [12]: 23.7 µM (active) | IC50 [13]: 51.4 µM (active) | IC50 [5]: 0.774 µM (active) | IC50 [14]: > 100 µM (inactive)

CC(C)=CCCC(C)CN1CCC(n2nccc2NC(=O)c2ccc3c(c2)OCO3)CC1 (stereo not drawn)
EC50 [15]: 9.11 µM (active) | EC50 [16]: > 10 µM (not active) | EC50 [17]: < 0.1 µM (active)

CN1CCc2nc(SCC(=O)Nc3cccc(F)c3)c(C#N)c(-c3cccs3)c2C1
EC50 [18]: > 50 µM (active) | EC50 [15]: > 60 µM (not active) | EC50 [16]: < 0.004 µM (active) | EC50 [17]: < 0.1 µM (active)

CN1C(=O)C(=Cc2ccc(N3CCOCC3)o2)C(=O)N(C)C1=O
EC50 [19]: > 100 µM (active)

O=C1C=C(c2cccc(Cl)c2)C[C@@H](c2ccc(F)cc2)C1
AC50 [2]: 9.81 µM (active)

COc1ccc(CC(=O)NCC2CCCN(Cc3ccc(SC)cc3)C2)cc1 (stereo not drawn)
EC50 [15]: > 60 µM (not active) | EC50 [16]: 0.034 µM (active) | EC50 [17]: < 0.1 µM (active)

N#Cc1c(/N=C/c2ccco2)sc2c1CCC2
IC50 [6]: > 50 µM (not active)

O=[N+]([O-])c1ccc(N2CCCCC2)s1
IC50 [12]: 36.1 µM (active) | IC50 [13]: 68 µM (active) | EC50 [19]: > 100 µM (active) | IC50 [14]: > 100 µM (inactive)

Cc1ccc(NC(=O)CSc2ccc(-c3ccc4c(c3)OCO4)nn2)cc1F
IC50 [7]: > 111 µM (not active) | IC50 [8]: 4.44 µM (active)

CCCCC(=O)N1CCN(C(=O)/C=C/c2ccc(Br)cc2)CC1
IC50 [20]: 0.00562 µM (active)

COCCN1C(=O)/C(=C/c2ccc(N3CCCC3)cc2)SC1=S
EC50 [21]: > 150 µM (not active) | EC50 [22]: 20.9 µM (inconclusive) | EC50 [23]: > 150 µM (not active) | IC50 [24]: < 0.5 µM (active) | EC50 [25]: > 99 µM (inactive) | EC50 [26]: 49.7 µM (active) | EC50 [27]: > 99 µM (inactive)

COCc1cc(C)nc(SCC(=O)Nc2cc3c(cc2C#N)OCO3)c1C#N
IC50 [3]: > 93.1 µM (not active)

CCOC(=O)c1ccc(N2Cc3ccccc3C2=N)cc1
AC50 [2]: 3.83 µM (active)

Oc1c2c(nc3cc(-c4ccc(F)cc4)nn13)CCCC2
AC50 [28]: 6.58 µM (active) | AC50 [29]: 7.51 µM (active) | EC50 [30]: 79.7 µM (active) | AC50 [31]: > 52 µM (inactive) | EC50 [32]: 33.8 µM (active)
